Experimental data as given in PMC10882719 (Frontiers in Neuroscience, 2024).
Where two headings read alike, the source gives them in different places.

How the values were obtained:
Format in all cases: cell-based
168 GPCRs [1] = biological target: T1, 168 GPCRs (Homo sapiens, UniProt P34998)
T1 construct: host or cells: PathHunter cell lines
T1 sequence (P34998 24-415): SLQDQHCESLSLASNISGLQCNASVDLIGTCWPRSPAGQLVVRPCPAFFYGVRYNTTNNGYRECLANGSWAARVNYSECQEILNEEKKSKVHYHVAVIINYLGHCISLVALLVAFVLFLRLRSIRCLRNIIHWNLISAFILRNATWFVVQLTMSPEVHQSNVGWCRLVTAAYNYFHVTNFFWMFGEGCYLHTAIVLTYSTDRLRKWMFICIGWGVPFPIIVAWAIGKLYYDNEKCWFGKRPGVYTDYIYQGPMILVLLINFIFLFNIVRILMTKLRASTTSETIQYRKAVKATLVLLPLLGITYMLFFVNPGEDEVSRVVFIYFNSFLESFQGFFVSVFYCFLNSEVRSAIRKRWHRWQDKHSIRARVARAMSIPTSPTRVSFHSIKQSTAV
Method: (§1) Studies were performed at Eurofins DiscoverX Corporation (Fremont, CA) using the GPCRmax assay according to the manufacturer’s protocols. […] Activity greater than 30% typically indicates agonist activity and inhibition greater than 50% indicates antagonist activity. This assay uses enzyme fragment complementation with […] as the functional reporter. When a GPCR is activated, […] is recruited and the reporter is detectable. GPCRmax offers a high-throughput screen of 168 GPCRs for agonist or antagonist activity. Briefly, PathHunter cell lines were propagated, seeded into 384-well microplates and incubated at 37°C. […] Microplates were read following signal generation with a PerkinElmer Envision™ instrument for chemiluminescent signal detection. Compound activity was analyzed using CBIS data analysis suite (ChemInnovation, CA) to determine raw values (RLU). For agonist mode assay, percentage activity was calculated using the following formula: % Activity =100% × (mean RLU of test sample - mean RLU of vehicle control) / (mean MAX control ligand - mean RLU of vehicle control). For antagonist mode assay, percentage inhibition was calculated using the following formula: % Inhibition =100% × (1 - (mean RLU of test sample - mean RLU of vehicle control) / (mean RLU of EC80 control - mean RLU of vehicle control)).

168 GPCRs [2] = biological target: T2, 168 GPCRs (Homo sapiens, UniProt P35368); conditions: ADRA1B
T2 construct: host or cells: PathHunter cell lines
T2 sequence (P35368 1-520): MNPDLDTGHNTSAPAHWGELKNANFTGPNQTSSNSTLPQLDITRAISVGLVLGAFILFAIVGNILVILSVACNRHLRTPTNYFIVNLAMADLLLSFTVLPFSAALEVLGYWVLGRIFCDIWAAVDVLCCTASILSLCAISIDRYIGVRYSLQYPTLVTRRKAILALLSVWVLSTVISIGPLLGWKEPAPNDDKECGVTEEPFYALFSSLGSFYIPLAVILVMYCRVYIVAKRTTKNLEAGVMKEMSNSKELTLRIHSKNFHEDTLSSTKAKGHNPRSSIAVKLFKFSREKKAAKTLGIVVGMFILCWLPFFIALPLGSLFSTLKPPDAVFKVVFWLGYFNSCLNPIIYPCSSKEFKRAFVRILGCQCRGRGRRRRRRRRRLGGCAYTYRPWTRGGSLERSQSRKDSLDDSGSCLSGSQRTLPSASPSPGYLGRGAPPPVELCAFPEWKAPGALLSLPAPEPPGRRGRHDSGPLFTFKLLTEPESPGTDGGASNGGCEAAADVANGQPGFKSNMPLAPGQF
Method: as §1

168 GPCRs [3] = biological target: T3, 168 GPCRs (Homo sapiens, UniProt Q9HC97)
T3 construct: host or cells: PathHunter cell lines
T3 sequence (Q9HC97 whole entry): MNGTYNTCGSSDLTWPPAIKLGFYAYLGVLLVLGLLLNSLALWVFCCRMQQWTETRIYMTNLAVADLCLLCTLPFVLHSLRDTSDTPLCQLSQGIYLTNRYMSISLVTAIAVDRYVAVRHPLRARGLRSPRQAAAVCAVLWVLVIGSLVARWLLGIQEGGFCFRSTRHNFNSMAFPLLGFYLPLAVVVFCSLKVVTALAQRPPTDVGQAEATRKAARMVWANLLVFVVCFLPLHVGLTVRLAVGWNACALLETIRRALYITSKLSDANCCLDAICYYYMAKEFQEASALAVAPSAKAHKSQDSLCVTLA
Method: as §1

168 GPCRs [4] = biological target: T4, 168 GPCRs (Homo sapiens, UniProt O14842)
T4 construct: host or cells: PathHunter cell lines
T4 sequence (O14842 whole entry): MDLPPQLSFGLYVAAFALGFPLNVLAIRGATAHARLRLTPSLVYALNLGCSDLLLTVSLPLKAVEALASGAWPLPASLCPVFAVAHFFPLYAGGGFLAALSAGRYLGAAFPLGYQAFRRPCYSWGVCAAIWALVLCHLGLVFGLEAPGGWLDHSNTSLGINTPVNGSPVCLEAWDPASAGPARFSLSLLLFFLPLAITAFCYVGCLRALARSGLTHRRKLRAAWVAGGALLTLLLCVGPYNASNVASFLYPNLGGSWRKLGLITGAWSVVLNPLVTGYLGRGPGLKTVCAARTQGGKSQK
Method: as §1

168 GPCRs [5] = biological target: T5, 168 GPCRs (Homo sapiens, UniProt Q99788)
T5 construct: host or cells: PathHunter cell lines
T5 sequence (Q99788 1-373): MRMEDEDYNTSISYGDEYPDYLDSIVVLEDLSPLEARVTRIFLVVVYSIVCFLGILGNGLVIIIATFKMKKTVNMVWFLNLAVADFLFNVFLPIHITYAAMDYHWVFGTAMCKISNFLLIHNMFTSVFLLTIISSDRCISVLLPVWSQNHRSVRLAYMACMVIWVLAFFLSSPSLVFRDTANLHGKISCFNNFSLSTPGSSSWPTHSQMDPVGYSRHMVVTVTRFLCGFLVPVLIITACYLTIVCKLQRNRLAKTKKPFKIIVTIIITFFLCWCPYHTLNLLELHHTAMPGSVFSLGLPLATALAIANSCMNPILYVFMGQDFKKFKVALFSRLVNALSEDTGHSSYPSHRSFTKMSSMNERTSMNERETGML
Method: as §1

168 GPCRs [6] = biological target: T6, 168 GPCRs (Homo sapiens, UniProt Q8TDS5); conditions: OXER1
T6 construct: host or cells: PathHunter cell lines
T6 sequence (Q8TDS5 whole entry): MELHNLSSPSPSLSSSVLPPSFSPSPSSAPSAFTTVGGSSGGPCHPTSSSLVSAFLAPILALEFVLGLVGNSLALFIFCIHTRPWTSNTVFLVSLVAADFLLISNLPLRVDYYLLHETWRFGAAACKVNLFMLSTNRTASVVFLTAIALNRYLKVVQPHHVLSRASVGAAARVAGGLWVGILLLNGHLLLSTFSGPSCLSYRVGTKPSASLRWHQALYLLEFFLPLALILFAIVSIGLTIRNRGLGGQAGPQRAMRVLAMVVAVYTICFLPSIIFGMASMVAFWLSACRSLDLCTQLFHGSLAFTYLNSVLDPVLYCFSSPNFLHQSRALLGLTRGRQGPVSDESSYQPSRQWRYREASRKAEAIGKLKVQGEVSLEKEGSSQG
Method: as §1

168 GPCRs [7] = biological target: T7, 168 GPCRs (Homo sapiens, UniProt P32238); conditions: CCKAR
T7 construct: host or cells: PathHunter cell lines
T7 sequence (P32238 1-428): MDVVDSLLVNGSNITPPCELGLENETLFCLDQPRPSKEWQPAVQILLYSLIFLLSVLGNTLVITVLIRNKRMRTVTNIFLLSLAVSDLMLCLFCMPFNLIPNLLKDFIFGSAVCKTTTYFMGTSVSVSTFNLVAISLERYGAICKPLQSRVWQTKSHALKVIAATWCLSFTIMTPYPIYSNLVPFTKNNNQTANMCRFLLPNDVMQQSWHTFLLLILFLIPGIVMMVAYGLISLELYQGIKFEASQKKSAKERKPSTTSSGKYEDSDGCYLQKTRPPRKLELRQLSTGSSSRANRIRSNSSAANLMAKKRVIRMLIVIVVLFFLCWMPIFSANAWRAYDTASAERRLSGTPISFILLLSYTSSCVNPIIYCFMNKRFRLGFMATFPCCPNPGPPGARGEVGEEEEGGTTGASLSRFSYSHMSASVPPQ
Method: as §1

SMILES | % Agonist Activity (168 GPCRs [1]; CRHR1, 1 uM) [%] | % Antagonist Activity (168 GPCRs [1]; CRHR1, 1 uM) [%] | % Agonist Activity (168 GPCRs [1]; CRHR1, 10 uM) [%] | % Antagonist Activity (168 GPCRs [1]; CRHR1, 10 uM) [%] | % Agonist Activity (168 GPCRs [2]; 1 uM) [%] | % Antagonist Activity (168 GPCRs [2]; 1 uM) [%] | % Agonist Activity (168 GPCRs [2]; 10 uM) [%] | % Antagonist Activity (168 GPCRs [2]; 10 uM) [%] | % Agonist Activity (168 GPCRs [3]; GPR35, 1 uM) [%] | % Antagonist Activity (168 GPCRs [3]; GPR35, 1 uM) [%] | % Agonist Activity (168 GPCRs [3]; GPR35, 10 uM) [%] | % Antagonist Activity (168 GPCRs [3]; GPR35, 10 uM) [%] | % Agonist Activity (168 GPCRs [4]; FFAR1, 1 uM) [%] | % Antagonist Activity (168 GPCRs [4]; FFAR1, 1 uM) [%] | % Agonist Activity (168 GPCRs [4]; FFAR1, 10 uM) [%] | % Antagonist Activity (168 GPCRs [4]; FFAR1, 10 uM) [%] | % Agonist Activity (168 GPCRs [5]; CMKLR1, 1 uM) [%] | % Antagonist Activity (168 GPCRs [5]; CMKLR1, 1 uM) [%] | % Agonist Activity (168 GPCRs [5]; CMKLR1, 10 uM) [%] | % Antagonist Activity (168 GPCRs [5]; CMKLR1, 10 uM) [%] | also measured
CNC(C)Cc1ccc2c(c1)OCO2 (centres unmarked) [MDMA, 3,4-Methylenedioxy methamphetamine, reference compound] | 0.7 | -1.7 | 0.2 | 0.2 | -1.6 | 18.7 | -1.6 | 35.1 | 0.3 | -1.1 | -1.5 | 4.6 | 3.9 | -5.6 | 7 | -0.4 | -0.3 | 0.4 | -0.4 | 1.1 | % Agonist Activity (168 GPCRs [6]; Conc 1 uM): 6.3%; % Antagonist Activity (168 GPCRs [6]; Conc 1 uM): -7.5%; % Agonist Activity (168 GPCRs [6]; Conc 10 uM): 4.8%; % Antagonist Activity (168 GPCRs [6]; Conc 10 uM): -1.7%; % Agonist Activity (168 GPCRs [7]; 1 uM): -0.1%; % Antagonist Activity (168 GPCRs [7]; 1 uM): -2.2%; % Agonist Activity (168 GPCRs [7]; 10 uM): 0.4%; % Antagonist Activity (168 GPCRs [7]; 10 uM): 0.7%
CNC(C)C(=O)c1ccc2c(c1)OCO2 (centres unmarked) [methylone] | 1.4 | 1.3 | 1.1 | 0.6 | -3.3 | 17.9 | -2.9 | 20.6 | 2.2 | 13.2 | 2.5 | 7.3 | 1.7 | -7.9 | 4.5 | -13.8 | -0.2 | -0.2 | -0.3 | -5.6 | % Agonist Activity (168 GPCRs [6]; Conc 1 uM): 3.2%; % Antagonist Activity (168 GPCRs [6]; Conc 1 uM): 2.9%; % Agonist Activity (168 GPCRs [6]; Conc 10 uM): -3.7%; % Antagonist Activity (168 GPCRs [6]; Conc 10 uM): 7.6%; % Agonist Activity (168 GPCRs [7]; 1 uM): 0.1%; % Antagonist Activity (168 GPCRs [7]; 1 uM): -4.3%; % Agonist Activity (168 GPCRs [7]; 10 uM): -0.3%; % Antagonist Activity (168 GPCRs [7]; 10 uM): -3.3%
